Source: BigSolDB 2.1

O=C1OC(=O)[C@H]2[C@@H]1[C@@H]1C=C[C@H]2O1
solubility (mole fraction)
Details	278.15 K	283.15 K	288.15 K	293.15 K	298.15 K	303.15 K	308.15 K	313.15 K	318.15 K	323.15 K
in 1,4-dioxane	–	–	0.0221	0.0275	0.0342	0.0421	0.052	0.0682	0.0869	0.131
in acetone	0.0386	0.0439	0.0477	0.0551	0.0617	0.0703	0.0814	0.0929	0.104	0.126
in ethanol	0.000635	0.00076	0.00091	0.00102	0.00124	0.00145	0.00169	0.00202	0.00238	0.00292
in ethyl acetate	0.0152	0.0165	0.02	0.0223	0.0274	0.0309	0.0364	0.0414	0.0475	0.0559
in methyl acetate	0.0225	0.028	0.0297	0.0357	0.0416	0.0483	0.0587	0.068	0.0805	0.0963
